Key:
[1] = test system: ducksalad; assay: Test B flood; format: in vivo, Heteranthera limosa; settings: 250 g ai/ha, visual rating on 0 to 100 scale (0 no effect, 100 complete control), 13 to 15 days
In short: (§1)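 Paddy-water application: seedlings at 2-leaf stage, flood depth 3 cm maintained for the test duration. Evaluation after 13–15 days in the greenhouse by eye relative to controls; 0–100 scale.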

[2] = test system: foxtail, giant; assay: Test A preemergence; format: in vivo, Setaria faberii; settings: preemergence
In short: (§2)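 Pre- and postemergence greenhouse test; loam+sand; cpd in non-phytotox. solvent/surfactant; post at 1–2 leaf, 2–10 cm; visual score ~10 d, 0 = none, 100 = complete control.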

[3] = test system: velvetleaf; assay: Test A postemergence; format: in vivo, Abutilon theophrasti
In short: as §2

[4] = test system: crabgrass, large; assay: Test A preemergence; format: in vivo, Digitaria sanguinalis; settings: preemergence
In short: as §2

[5] = test system: barnyardgrass; assay: Test A postemergence; format: in vivo, Echinochloa crus-galli
In short: as §2

[6] = test system: foxtail, giant; assay: Test A postemergence; format: in vivo, Setaria faberii
In short: as §2

[7] = test system: wheat; assay: Test A preemergence; format: in vivo, Triticum aestivum; settings: preemergence
In short: as §2

[8] = test system: pigweed; assay: Test A preemergence; format: in vivo, Amaranthus retroflexus; settings: preemergence
In short: as §2

[9] = test system: corn; assay: Test A postemergence; format: in vivo, Zea mays
In short: as §2

[10] = test system: sedge, umbrella; assay: Test B flood; format: in vivo, Cyperus difformis; settings: 250 g ai/ha, visual rating on 0 to 100 scale (0 no effect, 100 complete control), 13 to 15 days
In short: as §1

[11] = test system: rice; assay: Test B flood; format: in vivo, Oryza sativa; settings: 250 g ai/ha, visual rating on 0 to 100 scale (0 no effect, 100 complete control), 13 to 15 days
In short: as §1

[12] = test system: velvetleaf; assay: Test A preemergence; format: in vivo, Abutilon theophrasti; settings: preemergence
In short: as §2

[13] = test system: pigweed; assay: Test A postemergence; format: in vivo, Amaranthus retroflexus
In short: as §2

[14] = test system: barnyardgrass; assay: Test B flood; format: in vivo, Echinochloa crus-galli; settings: 250 g ai/ha, visual rating on 0 to 100 scale (0 no effect, 100 complete control), 13 to 15 days
In short: as §1

[15] = test system: wheat; assay: Test A postemergence; format: in vivo, Triticum aestivum
In short: as §2

[16] = test system: barnyardgrass; assay: Test A preemergence; format: in vivo, Echinochloa crus-galli; settings: preemergence
In short: as §2

[17] = test system: corn; assay: Test A preemergence; format: in vivo, Zea mays; settings: preemergence
In short: as §2

[18] = test system: morningglory; assay: Test A preemergence; format: in vivo, Ipomoea spp.; settings: preemergence
In short: as §2

[19] = test system: morningglory; assay: Test A postemergence; format: in vivo, Ipomoea spp.
In short: as §2

[20] = test system: crabgrass, large; assay: Test A postemergence; format: in vivo, Digitaria sanguinalis
In short: as §2

[21] = 125 g ai/ha, visual injury approx. 10 days after treatment
[22] = 500 g ai/ha, visual injury after approx. 10 days, 0 to 100 scale (0 no effect, 100 complete control)
[23] = Postemergence, 500 g ai/ha, 0 to 100 scale (0 no effect, 100 complete control)
[24] = postemergence, 125 g ai/ha, about 10 days, visual rating on 0 to 100 scale (0 no effect, 100 complete control)

COCc1cc(C(=O)NC(C)C)nn1Cc1ccnc(C(F)(F)F)c1 [Compound 166]
Plant response rating, Ducksalad [1]: 85
Foxtail, Giant plant response rating (0 to 100 scale) [2, 21]: 100
Foxtail, Giant plant response rating [2, 22]: 100
Velvetleaf plant response rating [3, 23]: 60
Velvetleaf plant response rating [3, 24]: 40
Crabgrass, Large plant response rating (0 to 100 scale) [4, 21]: 100
Crabgrass, Large plant response rating [4, 22]: 100
Barnyardgrass plant response rating [5, 23]: 90
Barnyardgrass plant response rating [5, 24]: 30
Foxtail, Giant plant response rating [6, 23]: 70
Foxtail, Giant plant response rating [6, 24]: 50
Wheat plant response rating (0 to 100 scale) [7, 21]: 10
Wheat plant response rating [7, 22]: 90
Pigweed plant response rating (0 to 100 scale) [8, 21]: 100
Pigweed plant response rating [8, 22]: 100
Corn plant response rating [9, 23]: 80
Corn plant response rating [9, 24]: 30
Plant response rating, Sedge, Umbrella [10]: 80
Plant response rating, Rice [11]: 10
Velvetleaf plant response rating (0 to 100 scale) [12, 21]: 60
Velvetleaf plant response rating [12, 22]: 100
Pigweed plant response rating [13, 23]: 100
Pigweed plant response rating [13, 24]: 10
Plant response rating, Barnyardgrass [14]: 10
Wheat plant response rating [15, 23]: 50
Wheat plant response rating [15, 24]: 0
Barnyardgrass plant response rating ([16]; 125 g ai/ha, visual injury, 0 to 100 scale, approx. 10 days): 50
Barnyardgrass plant response rating [16, 22]: 100
Corn plant response rating (0 to 100 scale) [17, 21]: 10
Corn plant response rating [17, 22]: 90
Morningglory plant response rating (0 to 100 scale) [18, 21]: 100
Morningglory plant response rating [18, 22]: 100
Morningglory plant response rating [19, 23]: 100
Morningglory plant response rating [19, 24]: 100
Crabgrass, Large plant response rating [20, 23]: 80
Crabgrass, Large plant response rating [20, 24]: 40
